Results on 15 compounds are retold here after patent US20240067668A1, “HETEROARYL DERIVATIVE COMPOUND AND USE THEREOF” (VORONOI INC., priority 2020, published 2024).

One test has as its target EGFR Del19/T790M/C797S (Homo sapiens, UniProt P00533, C797S/T790M, form not given). Put plainly: Enzyme IC50, EGFR Del19/T790M/C797S. The format is biochemical.
A further test concerns BaF3-EGFR (WT) cells. Kind of test: Inhibitory activity on Ba/F3 cell proliferation (CellTiter-Glo, 72 hours). The format is cell-based. The conditions noted are these: Ba/F3 cells expressing EGFR WT. The gist of the method:
(§1)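 Ba/F3 cells expressing wild-type EGFR or EGFR Del19/T790M/C797S, 3×10^3 per well, exposed 72 h at 37 °C to compound at 12 threefold dilutions, 0.00005-10 μM final. Viability by CellTiter-Glo 2.0; GI50 derived from growth relative to DMSO-treated cells.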

Test [1] deals with BaF3-EGFR (Del19/T790M/C797S) cells. The test is described as above. The format is cell-based. The note with it: Ba/F3 cells expressing EGFR Del19/T790M/C797S. The method in brief:
as §1

Sequence of EGFR Del19/T790M/C797S (P00533 25-1210 T790M/C797S, form open): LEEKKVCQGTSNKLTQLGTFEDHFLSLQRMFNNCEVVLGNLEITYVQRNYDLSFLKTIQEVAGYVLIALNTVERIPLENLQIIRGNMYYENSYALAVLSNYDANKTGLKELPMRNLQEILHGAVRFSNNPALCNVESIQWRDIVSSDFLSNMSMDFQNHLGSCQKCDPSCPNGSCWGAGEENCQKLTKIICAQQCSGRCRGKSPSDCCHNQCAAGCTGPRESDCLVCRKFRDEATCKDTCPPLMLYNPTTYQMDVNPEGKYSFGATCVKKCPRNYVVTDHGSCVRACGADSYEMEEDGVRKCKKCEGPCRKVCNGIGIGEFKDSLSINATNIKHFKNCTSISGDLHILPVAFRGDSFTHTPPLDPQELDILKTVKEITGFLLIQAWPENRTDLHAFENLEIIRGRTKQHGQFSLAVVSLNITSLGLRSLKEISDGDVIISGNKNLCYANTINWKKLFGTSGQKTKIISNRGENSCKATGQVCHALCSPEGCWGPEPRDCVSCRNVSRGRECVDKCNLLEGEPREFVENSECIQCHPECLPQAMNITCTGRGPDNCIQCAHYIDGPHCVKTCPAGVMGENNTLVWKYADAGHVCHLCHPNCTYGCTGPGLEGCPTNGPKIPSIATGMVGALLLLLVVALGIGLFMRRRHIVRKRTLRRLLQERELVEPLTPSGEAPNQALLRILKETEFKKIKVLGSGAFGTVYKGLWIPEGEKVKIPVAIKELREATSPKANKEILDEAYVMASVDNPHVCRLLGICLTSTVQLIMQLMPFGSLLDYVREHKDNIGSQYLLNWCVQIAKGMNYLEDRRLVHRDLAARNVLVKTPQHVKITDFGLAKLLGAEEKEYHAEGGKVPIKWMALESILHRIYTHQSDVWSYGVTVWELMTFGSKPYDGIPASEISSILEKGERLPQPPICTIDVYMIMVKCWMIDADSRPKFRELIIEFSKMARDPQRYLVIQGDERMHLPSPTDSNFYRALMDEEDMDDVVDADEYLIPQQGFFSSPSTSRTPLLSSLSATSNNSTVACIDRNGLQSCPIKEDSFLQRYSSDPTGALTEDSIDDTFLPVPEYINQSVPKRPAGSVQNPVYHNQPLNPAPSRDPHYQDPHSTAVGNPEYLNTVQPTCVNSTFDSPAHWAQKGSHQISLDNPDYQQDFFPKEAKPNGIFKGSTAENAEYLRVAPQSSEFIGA

At EGFR Del19/T790M/C797S, `COc1cc(N2CCN(C)CC2)c(-c2ccncc2)cc1Nc1nc(Nc2ccc3nccnc3c2P(C)(C)=O)c2cc[nH]c2n1` [Example 70, (6-((2-((2-methoxy-4-(4-methylpiperazin-1-yl)-5-(pyridin-4-yl)phenyl)amino)-7H-pyrrolo[2,3-d]pyrimidin-4-yl)amino)quinoxalin-5-yl)dimethyl-phosphine oxide] yielded an IC50 of at most 0.05 µM. Further, the GI50 (in the test with BaF3-EGFR (WT) cells; in test [1]) was above 0.1 µM throughout.
The compound `COc1cc(N2CCN(C)CC2)c(-c2cnc3ccccc3c2)cc1Nc1nc(Nc2ccc3nccnc3c2P(C)(C)=O)c2cc[nH]c2n1` [Example 71, (6-((2-((2-methoxy-4-(4-methylpiperazin-1-yl)-5-(quinolin-3-yl)phenyl)amino)-7H-pyrrolo[2,3-d]pyrimidin-4-yl)amino)quinoxalin-5-yl)dimethyl-phosphine oxide] showed an IC50 against EGFR Del19/T790M/C797S of at most 0.05 µM. Further, the 50% growth inhibitory concentration (GI50) (in the test on BaF3-EGFR (WT) cells; in test [1]) was above 0.1 µM in each case.
For `COc1cc(N2CCN(C)CC2)c(-c2ccccc2)cc1Nc1nc(Nc2ccc3nccnc3c2P(C)(C)=O)c2cc[nH]c2n1` [Example 72, (6-((2-((4-methoxy-6-(4-methylpiperazin-1-yl)-[1,1′-biphenyl]-3-yl)amino)-7H-pyrrolo[2,3-d]pyrimidin-4-yl)amino)quinoxalin-5-yl)dimethyl-phosphine oxide], the IC50 against EGFR Del19/T790M/C797S was at most 0.05 µM. The GI50 (with BaF3-EGFR (WT) cells; in test [1]) was above 0.1 µM throughout.
The compound `C=CC(=O)Nc1cc(Nc2nc(Nc3ccc4nccnc4c3P(C)(C)=O)c3cc[nH]c3n2)c(OC)cc1N1CCN(C)CC1` [Example 73, N-(5-((4-((5-(dimethyl-phosphoryl)quinoxalin-6-yl)amino)-7H-pyrrolo[2,3-d]pyrimidin-2-yl)amino)-4-methoxy-2-(4-methylpiperazin-1-yl)phenyl) acrylamide] came in with an IC50 against EGFR Del19/T790M/C797S of at most 0.05 µM. The GI50 in the test with BaF3-EGFR (WT) cells is 0.05 to 0.1 µM; in test [1], above 0.1 µM.
Turning to `COc1cc(N2CCN(C)CC2)c(-c2ccoc2)cc1Nc1nc(Nc2ccc3nccnc3c2P(C)(C)=O)c2cc[nH]c2n1` [Example 75, (6-((2-((5-(furan-3-yl)-2-methoxy-4-(4-methylpiperazin-1-yl)phenyl)amino)-7H-pyrrolo[2,3-d]pyrimidin-4-yl)amino)quinoxalin-5-yl)dimethyl-phosphine oxide], at EGFR Del19/T790M/C797S, the IC50 was at most 0.05 µM. In addition, the GI50 (with BaF3-EGFR (WT) cells; in test [1]) was above 0.1 µM in each case.
For `COc1cc(N2CCN(C)CC2)c(-c2ccsc2)cc1Nc1nc(Nc2ccc3nccnc3c2P(C)(C)=O)c2cc[nH]c2n1` [Example 76, (6-((2-((2-methoxy-4-(4-methylpiperazin-1-yl)-5-(thiophen-3-yl)phenyl)amino)-7H-pyrrolo[2,3-d]pyrimidin-4-yl)amino)quinoxalin-5-yl)dimethyl-phosphine oxide], at EGFR Del19/T790M/C797S, the IC50 is at most 0.05 µM. Besides, the GI50 (in the test on BaF3-EGFR (WT) cells; in test [1]) was above 0.1 µM each time.
In turn, `COc1cc(N2CCN(C)CC2)c(C#N)cc1Nc1nc(Nc2ccc3nccnc3c2P(C)(C)=O)c2cc[nH]c2n1` [Example 81, 5-((4-((5-(dimethyl-phosphoryl)quinoxalin-6-yl)amino)-7H-pyrrolo[2,3-d]pyrimidin-2-yl)amino)-4-methoxy-2-(4-methylpiperazin-1-yl)benzonitrile] registered an IC50 at EGFR Del19/T790M/C797S of at most 0.05 µM. Also, the GI50 (in the test with BaF3-EGFR (WT) cells; in test [1]) was above 0.1 µM each time.
`C=Cc1cc(Nc2nc(Nc3ccc4nccnc4c3P(C)(C)=O)c3cc[nH]c3n2)c(OC)cc1N1CCN(C)CC1` [Example 82, (6-((2-((2-methoxy-4-(4-methylpiperazin-1-yl)-5-vinylphenyl)amino)-7H-pyrrolo[2,3-d]pyrimidin-4-yl)amino)quinoxalin-5-yl)dimethyl-phosphine oxide]: the IC50 against EGFR Del19/T790M/C797S is at most 0.05 µM. For the same compound, the GI50 (with BaF3-EGFR (WT) cells; in test [1]) was above 0.1 µM each time.
Regarding `COc1cc(N2CCN(C)CC2)c(C2CC2)cc1Nc1nc(Nc2ccc3nccnc3c2P(C)(C)=O)c2cc[nH]c2n1` [Example 83, (6-((2-((5-cyclopropyl-2-methoxy-4-(4-methylpiperazin-1-yl)phenyl)amino)-7H-pyrrolo[2,3-d]pyrimidin-4-yl)amino)quinoxalin-5-yl)dimethyl-phosphine oxide], the IC50 against EGFR Del19/T790M/C797S was at most 0.05 µM. Also, the GI50 (in the test with BaF3-EGFR (WT) cells; in test [1]) was above 0.1 µM each time.
At EGFR Del19/T790M/C797S, `COc1cc(N2CCN(C)CC2)c(-c2cnn(C)c2)cc1Nc1nc(Nc2cnc3ccccc3c2P(C)(C)=O)c2cc[nH]c2n1` [Example 89, (3-((2-((2-methoxy-5-(1-methyl-1H-pyrazol-4-yl)-4-(4-methylpiperazin-1-yl)phenyl)amino)-7H-pyrrolo[2,3-d]pyrimidin-4-yl)amino)quinolin-4-yl)dimethyl-phosphine oxide] came in with an IC50 of at most 0.05 µM. The GI50 (in the test with BaF3-EGFR (WT) cells; in test [1]) was above 0.1 µM in each case.
Regarding `COc1cc(N2CCC(N3CCN(C)CC3)CC2)c(C)cc1Nc1nc(Nc2ccc3nccnc3c2P(C)(C)=O)c2nc[nH]c2n1` [Example 104, (6-((2-((2-methoxy-5-methyl-4-(4-(4-methylpiperazin-1-yl)piperidin-1-yl)phenyl)amino)-9H-purin-6-yl)amino)quinoxalin-5-yl)dimethyl-phosphine oxide], on EGFR Del19/T790M/C797S, the IC50 is at most 0.05 µM. The 50% growth inhibitory concentration (GI50) (in the test on BaF3-EGFR (WT) cells; in test [1]) was above 0.1 µM in each case.
At EGFR Del19/T790M/C797S, `COc1cc(N2CCC(N3CCN(C)CC3)CC2)c(-c2cnn(C)c2)cc1Nc1nc(Nc2ccc3nccnc3c2P(C)(C)=O)c2nc[nH]c2n1` [Example 105, (6-((2-((2-methoxy-5-(1-methyl-1H-pyrazol-4-yl)-4-(4-(4-methylpiperazin-1-yl)piperidin-1-yl)phenyl)amino)-9H-purin-6-yl)amino)quinoxalin-5-yl)dimethyl-phosphine oxide] gave an IC50 of at most 0.05 µM. Besides, the GI50 (in the test on BaF3-EGFR (WT) cells; in test [1]) was above 0.1 µM throughout.
In the case of `Cc1cn(-c2cc(Nc3nc(Nc4ccc5nccnc5c4P(C)(C)=O)c4cc[nH]c4n3)cc(C(F)(F)F)c2)cn1` [Example 106, dimethyl (6-((2-((3-(4-methyl-1H-imidazol-1-yl)-5-(trifluoromethyl)phenyl)amino)-7H-pyrrolo[2,3-d]pyrimidin-4-yl)amino)quinoxalin-5-yl)phosphine oxide], the IC50 against EGFR Del19/T790M/C797S was at most 0.05 µM. Further, the GI50 (in the test on BaF3-EGFR (WT) cells; in test [1]) was above 0.1 µM each time.
The compound `COc1cc(N2CCC3(CCN(C(=O)C4(F)CC4)CC3)CC2)c(-c2cnn(C)c2)cc1Nc1nc(Nc2ccc3nccnc3c2P(C)(C)=O)c2cc[nH]c2n1` [Example 111, (9-(4-((4-((5-(dimethyl-phosphoryl)quinoxalin-6-yl)amino)-7H-pyrrolo[2,3-d]pyrimidin-2-yl)amino)-5-methoxy-2-(1-methyl-1H-pyrazol-4-yl)phenyl)-3,9-diazaspiro[5.5]undecan-3-yl)(1-fluorocyclo-propyl) methanone] returned an IC50 on EGFR Del19/T790M/C797S above 0.1 µM. The GI50 in the test with BaF3-EGFR (WT) cells was above 0.1 µM; in test [1] it was at most 0.05 µM.
`COc1cc(N2CCN(C(=O)C3(F)CC3)CC2)c(-c2cnn(C)c2)cc1Nc1nc(Nc2ccc3nccnc3c2P(C)(C)=O)c2cc[nH]c2n1` [Example 112, (4-(4-((4-((5-(dimethyl-phosphoryl)quinoxalin-6-yl)amino)-7H-pyrrolo[2,3-d]pyrimidin-2-yl)amino)-5-methoxy-2-(1-methyl-1H-pyrazol-4-yl)phenyl)piperazin-1-yl)(1-fluorocyclo-propyl) methanone] displayed an IC50 against EGFR Del19/T790M/C797S of 0.05 to 0.1 µM. The GI50 was above 0.1 µM with BaF3-EGFR (WT) cells and at most 0.05 µM in test [1].
